Values of other authors as cited in patent publication US9750683B2, “Antifungal compositions for the treatment of skin and nails” (Veloce BioPharma, LLC, priority 2012, dated 2017).
Like-named read-outs stand apart in the source and are kept apart here.

## COC1=CC(=O)C[C@@H](C)[C@]12Oc1c(Cl)c(OC)cc(OC)c1C2=O [griseofulvin]
Dissolved in DMSO, relative to the other solvents
  ratio of penetration: 60
Dissolved in alcohol
  ratio of penetration: 3
Dissolved in benzene
  ratio of penetration: 1
Dissolved in dimethylacetamide
  ratio of penetration: 40
Dissolved in dimethylformamide
  ratio of penetration: 7
